As usually defined, the EC50 is the concentration at which the effect is half-maximal. Higher therefore signals lower potency in that assay.

For this test, the target named is T1, human FFAR1 (GPR40) (Homo sapiens, UniProt O14842).
T1 construct: Flag; expressed in transfected cells; host or cells: HEK293T
Put plainly: NFAT-RE-based reporter gene activity assay (Dual-Glo luciferase) for GPR40 agonistic activity in co-transfected HEK293T cells. The test is classed as cell-based. The following applies: 4-hour treatment; for Efficacy (%): class symbols. A digest of the protocol:
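Agonism read as NFAT-RE-driven firefly luciferase over Renilla control (Dual-Glo) after 4 h compound exposure, top concentration 1 µM, 10 half-log steps.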

T1 sequence (O14842 whole entry): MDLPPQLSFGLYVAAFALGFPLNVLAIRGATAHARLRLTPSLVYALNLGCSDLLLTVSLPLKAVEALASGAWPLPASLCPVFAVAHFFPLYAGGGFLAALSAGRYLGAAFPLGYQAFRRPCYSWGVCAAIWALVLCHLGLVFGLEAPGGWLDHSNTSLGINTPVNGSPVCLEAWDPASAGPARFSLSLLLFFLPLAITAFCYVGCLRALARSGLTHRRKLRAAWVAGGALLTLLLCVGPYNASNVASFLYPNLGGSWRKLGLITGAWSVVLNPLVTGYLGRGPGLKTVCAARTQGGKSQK

With `COc1cccc(N2CCC(c3oc4cc(C(CC(=O)O)C5CC5)ccc4c3-c3nnc(C(C)(C)CN4CCCCC4)o3)CC2)c1` (stereo not shown) [Compound 137], the concentration for a half-maximal effect (EC50) was in the range of 10 to 100 nM and the “Efficacy (%)” value is recorded as “††† (Efficacy (%) > 150)”.
The like results for `COc1cccc(N2CCC(c3oc4cc(C(CC(=O)O)C5CC5)ccc4c3-c3nnc(C45CC6CC(CC(C6)C4)C5)o3)CC2)c1` (stereo not shown) [Compound 139] were, in that order, 100 to 500 nM and “†† (150 ≥ Efficacy (%) > 100)”.
For the compound `COc1cccc(N2CCC(c3oc4cc(C(CC(=O)O)C5CC5)ccc4c3-c3nnc(C4(C)CCCCC4)o3)CC2)c1` (stereo not shown) [Compound 140], the EC50 lay within 100 to 500 nM and the “Efficacy (%)” value is recorded as “††† (Efficacy (%) > 150)”.
Consider `COc1cccc(N2CCC(c3oc4cc([C@@H](CC(=O)O)C5CC5)ccc4c3-c3nnc(C(C)(C)C)o3)CC2)c1F` [Compound 141], for which the concentration giving a half-maximal response (EC50) was not above 10 nM and the “Efficacy (%)” value was “††† (Efficacy (%) > 150)”.
Take `COc1ccc(F)c(N2CCC(c3oc4cc([C@@H](CC(=O)O)C5CC5)ccc4c3-c3nnc(C(C)(C)C)o3)CC2)c1` [Compound 142]: the EC50 is 100 to 500 nM and the “Efficacy (%)” value was “†† (150 ≥ Efficacy (%) > 100)”.
The like results for `CC(C)(C)c1nnc(-c2c(C3CCN(c4ccc5c(c4)OCO5)CC3)oc3cc([C@@H](CC(=O)O)C4CC4)ccc23)o1` [Compound 143] were, in that order, 10 to 100 nM and “†† (150 ≥ Efficacy (%) > 100)”.
Consider `COc1cccc(N2CCC(c3oc4cc([C@@H](CC(=O)O)C5CC5)ccc4c3-c3cncc(C)c3)CC2)c1` [Compound 144], for which the EC50 was more than 500 nM and the “Efficacy (%)” value is on record as “†† (150 ≥ Efficacy (%) > 100)”.
On to `COc1cccc(N2CCC(c3oc4cc([C@@H](CC(=O)O)C5CC5)ccc4c3-c3ccnc(C)c3)CC2)c1` [Compound 145], for which the EC50 lay in the range of 10 to 100 nM and the “Efficacy (%)” value was “†† (150 ≥ Efficacy (%) > 100)”.
On to `COc1cccc(N2CCC(c3oc4cc([C@@H](CC(=O)O)C5CC5)ccc4c3-c3cc(C)ccn3)CC2)c1` [Compound 146], for which the EC50 lay in the range of 100 to 500 nM and the “Efficacy (%)” value is given as “††† (Efficacy (%) > 150)”.
For `COc1cccc(N2CCC(c3oc4cc([C@@H](CC(=O)O)C5CC5)ccc4c3-c3cccc(C)n3)CC2)c1` [Compound 147] the same measures were 10 to 100 nM and “††† (Efficacy (%) > 150)”.
With `COc1cccc(N2CCC(c3oc4cc(C(CC(=O)O)C5CC5)ccc4c3-c3cccc(N(CC(C)(C)C)C(C)=O)n3)CC2)c1` (stereo not shown) [Compound 148], the half-maximal effective concentration (EC50) fell in the range of 100 to 500 nM and the “Efficacy (%)” value is given as “†† (150 ≥ Efficacy (%) > 100)”.
The like results for `COc1cccc(N2CCC(c3oc4cc(C(CC(=O)O)C5CC5)ccc4c3-c3cccc(NC(=O)CC(C)(C)C)n3)CC2)c1` (stereo not shown) [Compound 149] were, in that order, 100 to 500 nM and “†† (150 ≥ Efficacy (%) > 100)”.
For `COc1cccc(N2CCC(c3oc4cc([C@@H](CC(=O)O)C5CC5)ccc4c3-c3cc4ccccc4[nH]3)CC2)c1` [Compound 150], the EC50 lay in the range of 100 to 500 nM and the “Efficacy (%)” value is “†† (150 ≥ Efficacy (%) > 100)”.
The like results for `COc1cccc(N2CCC(c3oc4cc([C@@H](CC(=O)O)C5CC5)ccc4c3-c3cc4cccc(F)c4[nH]3)CC2)c1` [Compound 151] were, in that order, 100 to 500 nM and “†† (150 ≥ Efficacy (%) > 100)”.
Turning to `COc1cccc(N2CCC(c3oc4cc([C@@H](CC(=O)O)C5CC5)ccc4c3-c3nc4ccccc4s3)CC2)c1` [Compound 152], the half-maximal effective concentration (EC50) was 100 to 500 nM and the “Efficacy (%)” value is “†† (150 ≥ Efficacy (%) > 100)”.
In the case of `COc1cccc(N2CCC(c3oc4cc([C@@H](CC(=O)O)C5CC5)ccc4c3-c3nc4ccccn4n3)CC2)c1` [Compound 153], the concentration giving a half-maximal response (EC50) was in the range of 100 to 500 nM and the “Efficacy (%)” value was “††† (Efficacy (%) > 150)”.
`COc1cccc(N2CCC(c3oc4cc([C@@H](CC(=O)O)C5CC5)ccc4c3-c3ccc4ccccc4n3)CC2)c1` [Compound 154]: the 50% effective concentration (EC50) lay within 100 to 500 nM and the “Efficacy (%)” value is “††† (Efficacy (%) > 150)”.
